Consider 1 substance from patent US7745191B2, “Method of producing heterodimer derivative of protein phosphatase type 2A enzyme” (Tropical Technology Center Ltd., priority 2005, dated 2010).

The assay is described as follows: Phosphatase activity of the purified protein using p-nitrophenylphosphate as substrate. Format: biochemical. The settings on record: infected High Five cells incubated at 19° C. for 4 days versus 27° C. for 3 days (comparative example); FIG. 4. How it is done:
By SDS-PAGE (0.2 μg of protein; 10% SDS-gel), the purified recombinant protein in the recovered eluate was confirmed. The activity of the purified protein was determined according to a method using p-nitrophenylphosphate as substrate (Takai et al. 1995, Biochem J. 306:657-665).
In both figures, the term “27° C.” indicates the tagged catalytic unit of PP2A (comparative example), which was prepared in the same manner as in Example 3 except that the cells infected with the recombinant baculovirus was incubated at 27° C. for 3 days. In FIG. 3, the both end side lanes indicate a marker, the 2nd lane from left indicates the tagged catalytic unit of PP2A prepared by incubation at 27° C., and the 3rd lane from left indicates the tagged catalytic unit of PP2A prepared by incubation at 19° C.

Bounds are passed on as bounds.

On to “tagged catalytic unit of PP2A: Recombinant human PP2A catalytic subunit carrying a polyhistidine tag (His-PP2Acα, His-PP2Acβ), expressed in baculovirus-infected High Five cells”, for which the “enhancement of activity to p-nitrophenylphosphate” value was no less than 6 times.
